Experimental data published in PMC8273159, “In Vivo Behavior of the Antibacterial Peptide Cyclo[RRRWFW], Explored Using a 3-Hydroxychromone-Derived Fluorescent Amino Acid” (Frontiers in Chemistry, 2021).
Values after ≈ are worked out from the molar mass of the structure shown. Numbered stars: 1 amine (or outer) side, 2 acyl side, 3 side chain; on linkers, the order of the positions; unused ones are H or OH. Square brackets hold non-standard residues; d marks the D form. Peptide text beside a SMILES is read from it. X1 = O=C([C@H](Cc1ccc2oc(-c3ccco3)c(O)c(=O)c2c1)N[*:1])[*:2]

Columns and labels:
[1] = tested on: Bacillus spizizenii (DSM 347); format: cell-based; conditions: DSM 347, 20 h
Method: (§1) Bacillus spizizenii (DSM 347) and Escherichia coli (DSM 1116) were purchased from the German Collection of Microorganisms and Cell Cultures. The bacterial strains were maintained frozen at −80°C using a bacterial Cryobank System (Mast Diagnostica). To refresh bacterial cells on single glass beads, they were grown overnight in Müller-Hinton (MH) medium, and colonies were obtained by streaking on MH agar. Then, colony cells were used to inoculate MH broth up to OD = 0.02 and grew at 37°C overnight. These overnight cultures were used to inoculate the test culture, which was grown for 3–4 h until it reached exponential growth. HeLa (ECACC 93021013) and HEK293 (ECACC 85120602) cells were purchased from […] and were routinely cultured in Roswell Park Memorial Institute (RPMI) 1640 medium or Dulbecco’s modified Eagle medium (DMEM) supplemented with 10% fetal calf serum (FCS) and 1% penicillin/streptomycin, respectively. Cells were passaged every 2–3 days and used until passage 35. All animal cell types were cultured at 37 °C in a 5% CO2 atmosphere and tested negative for mycoplasma.
(§2) The bacteriostatic activity of the peptides was characterized by determining minimal culture growth inhibitory concentrations (MICs) in planktonic cultures. Serial twofold dilutions of each peptide (in-well concentration range: 128 μg/ml to […]) were prepared in MH broth and aliquoted into round-bottom 96-well microtiter plates (Sarstedt). Each well was inoculated with a standardized inoculum to achieve a final test concentration of approximately 10^6 cells/ml. […] The measurements were repeated twice with three replicates each time.

[2] = tested on: Escherichia coli (DSM 1116); format: cell-based; conditions: DSM 1116, 20 h
Method: as §1, §2

[3] = tested on: human erythrocyte suspension; test: Hemolysis assay (hemoglobin release); format: cell-based; conditions: Tris-HCl pH 7.6, 37°C, 30 min
Source text: All chemicals were purchased from Sigma-Aldrich, Iris Biotech or Biosolve and were used without further purification. Ultrapure deionized (MilliQ, Millipore) water was used to prepare aqueous solutions and mixtures. Solvents for peptide purification and optical spectroscopy were of HPLC grade and were degassed before use. Culture media and supplements for animal cells were from Thermo Fisher, those for bacterial culturing were from Becton, and those for zebrafish embryo handling were freshly prepared. Citrate phosphate dextrose-stabilized blood bags with erythrocyte suspensions of healthy donors for hemolysis assays were obtained from the blood bank of the Karlsruhe municipal hospital.
Hemolytic activity was examined using the same serial twofold dilution concentrations as for the MIC assay. […] The tubes were centrifuged at 13,000 rpm for 10 min to pellet the cells, and the absorbance at 540 nm was recorded against a negative control (cells without peptide, accounting for autohaemolysis). The lysis percentage was calculated relative to lysis levels induced by 1% (v/v) Triton X-100. The absorbance measurements were repeated five times, and the averaged values were used.

[4] = Analytical C18 HPLC retention time as measure of overall hydrophobicity; format: physicochemical; conditions: chromatographic, C18 phase (Vydac), water/acetonitrile with 0.1% TFA, 1% B/min gradient, column 40°C; used to assess overall hydrophobicity
Method: The peptides were purified (>95%) by reversed-phase high-performance liquid chromatography (HPLC) employing C18 stationary phase columns (Vydac) and TFA-supplemented (0.1% v/v) water/acetonitrile gradients (4% eluent B/min) without temperature control on a Jasco HPLC system equipped with a diode array detector. Analytical chromatography was performed using the same stationary/mobile phase conditions, employing temperature control (column temperature 40°C) and shallower gradients (1% eluent B/min). All peptides and individual HPLC fractions were characterized by matrix-assisted laser desorption/ionization time-of-flight mass spectrometry (MALDI-TOF MS) using a Bruker Autoflex III instrument in positive reflector detection mode and with α-cyano-4-hydroxycinnamic acid as a matrix. From pure peptide powders, stock solutions were prepared (1 mg/ml) in 30% aqueous acetonitrile and stored at −80°C. For spectroscopy, imaging and bioactivity measurements, aliquots from these solutions were taken a day before the experiment, and peptide samples containing the necessary amount of peptide dry material were obtained by lyophilization overnight.

Compound | MIC B. spizizenii [1] [µM] | MIC E. coli [2] [µM] | death of erythrocytes (hemolysis) ([3]; 30 µM peptide, absorbance 540 nm, relative to 1% Triton X-100, five readings averaged) [%] | hemolytic activity, comparison in words ([3]; human erythrocytes, relative to 1% Triton X-100) | RT (apparent retention time) [4] [min]
N=C(N)NCCC[C@@H]1NC(=O)[C@H](CCCNC(=N)N)NC(=O)[C@H](Cc2c[nH]c3ccccc23)NC(=O)[C@H](Cc2ccc3oc(-c4ccco4)c(O)c(=O)c3c2)NC(=O)[C@H](Cc2c[nH]c3ccccc23)NC(=O)[C@H](CCCNC(=N)N)NC1=O [cRW-F^2/FHC] (cyclo(RRRW[X1]W)) | 14.0 (≈ 15.9 µg/mL) | 28.1 (≈ 32 µg/mL) | > 50 | the most hemolytic | 
N=C(N)NCCC[C@@H]1NC(=O)[C@H](CCCNC(=N)N)NC(=O)[C@H](Cc2c[nH]c3ccccc23)NC(=O)[C@H](Cc2ccccc2)NC(=O)[C@H](Cc2ccc3oc(-c4ccco4)c(O)c(=O)c3c2)NC(=O)[C@H](CCCNC(=N)N)NC1=O [cRW-W^1/FHC] (cyclo(FWRRR[X1])) | 14.6 (≈ 16 µg/mL) | 29.1 (≈ 32 µg/mL) |  |  | 
N=C(N)NCCC[C@@H]1NC(=O)[C@H](CCCNC(=N)N)NC(=O)[C@H](Cc2ccc3oc(-c4ccco4)c(O)c(=O)c3c2)NC(=O)[C@H](Cc2ccccc2)NC(=O)[C@H](Cc2c[nH]c3ccccc23)NC(=O)[C@H](CCCNC(=N)N)NC1=O [cRW-W^3/FHC] (cyclo(F[X1]RRRW)) | 14.6 (≈ 16 µg/mL) | 29.1 (≈ 32 µg/mL) |  |  | 11
N=C(N)NCCC[C@@H]1NC(=O)[C@H](CCCNC(=N)N)NC(=O)[C@H](Cc2c[nH]c3ccccc23)NC(=O)[C@H](Cc2ccccc2)NC(=O)[C@H](Cc2c[nH]c3ccccc23)NC(=O)[C@H](CCCNC(=N)N)NC1=O [cWFW, cyclo[RRRWFW]] (cyclo(FWRRRW)) | 4.0 (≈ 3.95 µg/mL) | 8.1 (≈ 8 µg/mL) |  |  | 9
